Measurements: patent US5916873A, “Teicoplanin derivatives” (Eli Lilly and Company, priority 1998, dated 1999)
Converted amounts (≈) assume the structure as drawn.

How the values were obtained:
H. influR D/BL+ = assay type: cell-based, H. influ; settings: Table 2C; strain RD/BL+
Protocol: (§1) The antibacterial efficacy of the present teicoplanin derivatives is illustrated by the following tables. The minimal inhibitory concentrations (MICs) were determined using a standard broth micro-dilution assay.

[1] = test system: vancomycin-sensitive enterococci; test: mean geometric MIC, vancomycin-sensitive enterococci, broth micro-dilution; assay type: cell-based, Enterococcus faecium and Enterococcus faecalis; settings: Table 3, representative vancomycin-sensitive enterococci
Protocol: as §1

S. aureus 489 = test: standard broth micro-dilution MIC; assay type: cell-based; settings: Table 2A; strain 489
Protocol: as §1

S. epi 270 = test: standard broth micro-dilution MIC; assay type: cell-based; settings: Table 2B; strain 270
Protocol: as §1

H. influ RD = test: standard broth micro-dilution MIC; assay type: cell-based; settings: Table 2C; strain RD
Protocol: as §1

E. f. 2041 = test: standard broth micro-dilution MIC; assay type: cell-based; settings: Table 2B; strain 2041
Protocol: as §1

E. f. 180 = test: standard broth micro-dilution MIC; assay type: cell-based; settings: Table 2B; strain 180
Protocol: as §1

S. aureus S13E = test: standard broth micro-dilution MIC; assay type: cell-based; settings: Table 2A; strain S13E
Protocol: as §1

S. aureus SA1199B = test: standard broth micro-dilution MIC; assay type: cell-based; settings: Table 2B; strain SA1199B
Protocol: as §1

S. aureus 446 = test: standard broth micro-dilution MIC; assay type: cell-based; settings: Table 2A; strain 446
Protocol: as §1

E. f. 180-1 = test: standard broth micro-dilution MIC; assay type: cell-based; settings: Table 2B; strain 180-1
Protocol: as §1

M. cat M12 = test: standard broth micro-dilution MIC; assay type: cell-based; settings: Table 2C; strain M12
Protocol: as §1

S. aureus 491 = test: standard broth micro-dilution MIC; assay type: cell-based; settings: Table 2A; strain 491
Protocol: as §1

S. h. 415 = test: standard broth micro-dilution MIC; assay type: cell-based; settings: Table 2B; strain 415
Protocol: as §1

St. pyro C203 = test: standard broth micro-dilution MIC; assay type: cell-based; settings: Table 2C; strain C203
Protocol: as §1

E. f. 276 = test: standard broth micro-dilution MIC; assay type: cell-based; settings: Table 2C; strain 276
Protocol: as §1

St. pneumo P1 = test: standard broth micro-dilution MIC; assay type: cell-based; settings: Table 2C; strain P1
Protocol: as §1

E. gall. 245 = test: standard broth micro-dilution MIC; assay type: cell-based; settings: Table 2C; strain 245
Protocol: as §1

S. aureus SA1199R = test: standard broth micro-dilution MIC; assay type: cell-based; settings: Table 2B; strain SA1199R
Protocol: as §1

S. aureus X400 = test: standard broth micro-dilution MIC; assay type: cell-based; settings: Table 2A; strain X400
Protocol: as §1

S. aureus 447 = test: standard broth micro-dilution MIC; assay type: cell-based; settings: Table 2A; strain 447
Protocol: as §1

S. aureus SA1199 = test: standard broth micro-dilution MIC; assay type: cell-based; settings: Table 2A; strain SA1199
Protocol: as §1

S. aureus X778 = test: standard broth micro-dilution MIC; assay type: cell-based; settings: Table 2A; strain X778
Protocol: as §1

S. h. 105 = test: standard broth micro-dilution MIC; assay type: cell-based; settings: Table 2B; strain 105
Protocol: as §1

EC14 = test: standard broth micro-dilution MIC; assay type: cell-based; settings: Table 2C; strain EC14
Protocol: as §1

[2] = test system: vancomycin-resistant enterococci; test: mean geometric MIC, vancomycin-resistant enterococci, broth micro-dilution; assay type: cell-based, Enterococcus faecium and Enterococcus faecalis; settings: Table 3, representative vancomycin-resistant enterococci
Protocol: as §1

Compound	MIC H. influR D/BL+ (H. influR D/BL+) [µg/mL]	MIC S. aureus 489 (S. aureus 489)	MIC S. epi 270 (S. epi 270)	MIC H. influ RD (H. influ RD) [µg/mL]	MIC E. f. 2041 (E. f. 2041)	MIC E. f. 180 (E. f. 180)	MIC S. aureus S13E (S. aureus S13E)	MIC S. aureus SA1199B (S. aureus SA1199B)	MIC S. aureus 446 (S. aureus 446)	MIC E. f. 180-1 (E. f. 180-1)	MIC M. cat M12 (M. cat M12)	MIC S. aureus 491 (S. aureus 491)	MIC S. h. 415 (S. h. 415) [µg/mL]	MIC St. pyro C203 (St. pyro C203)	MIC E. f. 276 (E. f. 276)	MIC St. pneumo P1 (St. pneumo P1)	MIC E. gall. 245 (E. gall. 245)	MIC S. aureus SA1199R (S. aureus SA1199R)	MIC S. aureus X400 (S. aureus X400)	MIC S. aureus 447 (S. aureus 447)	other results
CC(=O)NC1C(OC2c3ccc(c(Cl)c3)Oc3cc4cc(c3OC3OC(CO)C(O)C(O)C3N)Oc3ccc(cc3Cl)CC3NC(=O)C(NCc5ccc(-c6ccccc6)cc5)c5ccc(O)c(c5)Oc5cc(O)cc(c5)C(NC3=O)C(=O)NC4C(=O)NC3C(=O)NC2C(=O)NC(C(=O)O)c2cc(O)cc(OC4OC(CO)C(O)C(O)C4O)c2-c2cc3ccc2O)OC(CO)C(O)C1O (stereo not drawn) [Example 2, Deacyl Teicoplanin, N^15-(4-phenylbenzyl) Derivative]	32 (≈ 16.9 µM)	≤ .03 µg/mL	0.25 µg/mL (≈ 0.132 µM)	16 (≈ 8.46 µM)	≤ .03 µg/mL	32 µg/mL (≈ 16.9 µM)	≤ .03 µg/mL	≤ .03 µg/mL	≤ .03 µg/mL	0.25 µg/mL (≈ 0.132 µM)	0.25 µg/mL (≈ 0.132 µM)	≤ .03 µg/mL	8 (≈ 4.23 µM)	≤ .03 µg/mL	≤ .03 µg/mL	≤ .03 µg/mL	0.25 µg/mL (≈ 0.132 µM)	≤ .03 µg/mL	≤ .03 µg/mL	0.25 µg/mL (≈ 0.132 µM)	Sens. MIC [1]: 2.6 µg/mL; MIC S. aureus SA1199 (S. aureus SA1199): ≤ .03 µg/mL; MIC S. aureus X778 (S. aureus X778): 0.125 µg/mL (≈ 0.0661 µM); MIC S. h. 105 (S. h. 105): 0.25 µg/mL (≈ 0.132 µM); MIC EC14 (EC14): > 32 µg/mL; Resist. MIC [2]: > 32 µg/mL
CC(=O)NC1C(OC2c3ccc(c(Cl)c3)Oc3cc4cc(c3OC3OC(CO)C(O)C(O)C3NCc3ccc(-c5ccccc5)cc3)Oc3ccc(cc3Cl)CC3NC(=O)C(NCc5ccc(-c6ccccc6)cc5)c5ccc(O)c(c5)Oc5cc(O)cc(c5)C(NC3=O)C(=O)NC4C(=O)NC3C(=O)NC2C(=O)NC(C(=O)O)c2cc(O)cc(OC4OC(CO)C(O)C(O)C4O)c2-c2cc3ccc2O)OC(CO)C(O)C1O.O=C(O)C(F)(F)F (stereo not drawn) [Example 1, Deacyl Teicoplanin, Bis(4-phenylbenzyl) Derivative]	64	0.125 µg/mL	1 µg/mL	64	≤ .06 µg/mL	≤ 06 µg/mL	0.25 µg/mL	0.5 µg/mL	0.5 µg/mL	≤ .06 µg/mL	≤ .06 µg/mL	0.25 µg/mL	4	≤ .06 µg/mL	≤ .06 µg/mL	≤ .06 µg/mL	≤ .06 µg/mL	≤ .06 µg/mL	0.25 µg/mL	2 µg/mL	MIC S. aureus SA1199 (S. aureus SA1199): 0.25 µg/mL; MIC S. aureus X778 (S. aureus X778): 0.25 µg/mL; MIC S. h. 105 (S. h. 105): ≤ .06 µg/mL; MIC EC14 (EC14): > 64 µg/mL
CCCCc1ccc(CNC2C(=O)NC3Cc4ccc(c(Cl)c4)Oc4cc5cc(c4OC4OC(CO)C(O)C(O)C4NCc4ccc(CCCC)cc4)Oc4ccc(cc4Cl)C(OC4OC(CO)C(O)C(O)C4NC(C)=O)C4NC(=O)C(NC(=O)C5NC(=O)C(NC3=O)c3cc(O)cc(c3)Oc3cc2ccc3O)c2ccc(O)c(c2)-c2c(OC3OC(CO)C(O)C(O)C3O)cc(O)cc2C(C(=O)O)NC4=O)cc1 (stereo not drawn) [Example 5]	1 (≈ 0.496 µM)	0.5 µg/mL (≈ 0.248 µM)	0.25 µg/mL (≈ 0.124 µM)	64 (≈ 31.7 µM)	≤ .06 µg/mL	≤ .06 µg/mL	1 µg/mL (≈ 0.496 µM)	0.25 µg/mL (≈ 0.124 µM)	0.5 µg/mL (≈ 0.248 µM)	≤ .06 µg/mL	≤ .06 µg/mL	0.25 µg/mL (≈ 0.124 µM)	4 (≈ 1.98 µM)	≤ .06 µg/mL	≤ .06 µg/mL	≤ .06 µg/mL	≤ .06 µg/mL	≤ .06 µg/mL	0.25 µg/mL (≈ 0.124 µM)	0.5 µg/mL (≈ 0.248 µM)	Sens. MIC [1]: 0.25 µg/mL; MIC S. aureus SA1199 (S. aureus SA1199): 0.25 µg/mL (≈ 0.124 µM); MIC S. aureus X778 (S. aureus X778): 0.25 µg/mL (≈ 0.124 µM); MIC S. h. 105 (S. h. 105): 0.125 µg/mL (≈ 0.0619 µM); MIC EC14 (EC14): > 64 µg/mL; Resist. MIC [2]: 0.84 µg/mL
CC(=O)NC1C(OC2c3ccc(c(Cl)c3)Oc3cc4cc(c3OC3OC(CO)C(O)C(O)C3NCc3ccc5ccccc5c3)Oc3ccc(cc3Cl)CC3NC(=O)C(NCc5ccc6ccccc6c5)c5ccc(O)c(c5)Oc5cc(O)cc(c5)C(NC3=O)C(=O)NC4C(=O)NC3C(=O)NC2C(=O)NC(C(=O)O)c2cc(O)cc(OC4OC(CO)C(O)C(O)C4O)c2-c2cc3ccc2O)OC(CO)C(O)C1O (stereo not drawn) [Example 6]	1 (≈ 0.499 µM)	≤ .06 µg/mL	≤ .06 µg/mL	16 (≈ 7.98 µM)	≤ .06 µg/mL	0.25 µg/mL (≈ 0.125 µM)	≤ .06 µg/mL	≤ .06 µg/mL	≤ .06 µg/mL	≤ .06 µg/mL	≤ .06 µg/mL	≤ .06 µg/mL	4 (≈ 1.99 µM)	≤ .06 µg/mL	≤ .06 µg/mL	≤ .06 µg/mL	≤ .06 µg/mL	≤ .06 µg/mL	≤ .06 µg/mL	≤ .06 µg/mL	Sens. MIC [1]: 0.11 µg/mL; MIC S. aureus SA1199 (S. aureus SA1199): ≤ .06 µg/mL; MIC S. aureus X778 (S. aureus X778): ≤ .06 µg/mL; MIC S. h. 105 (S. h. 105): ≤ .06 µg/mL; MIC EC14 (EC14): > 64 µg/mL; Resist. MIC [2]: 3.4 µg/mL
